{"source": "paper PMC10657444", "about": "“Design and evaluation of tadpole-like conformational antimicrobial peptides” (Communications Biology, 2023)", "key": {"MRSA USA 300": {"tested_on": "MRSA USA 300", "assay": "microbe, parasite or virus in culture", "assay_type": "cell-based, Staphylococcus aureus", "description": "MRSA USA 300 and K. pneumoniae ATCC 700603 were employed to assess the development of resistance. From inoculated microtiter panels, an aliquot of the well with the highest concentration permitting growth was taken and back diluted in fresh media to a turbidity of a 0.5 McFarland standard. This suspension was then further diluted and used to inoculate a fresh MIC panel resulting in a final concentration of 5 × 10^6 CFU/mL. Panels were incubated according to CLSI guidelines (M07, 11th edition, 2018), MICs were recorded and the next inoculum was prepared from the well containing the highest concentration of drug that allowed growth in identical fashion as described above."}, "HEK293T cells": {"tested_on": "HEK293T cells", "assay": "MTT cytotoxicity assay", "assay_type": "cell-based, human", "details": "for percent cell viability: HEK293T"}, "[1]": {"tested_on": "K. pneumoniae ATCC 700603", "assay": "Time-kill assay", "assay_type": "cell-based, Klebsiella pneumoniae", "description": "Time-kill assays were done in tubes (in 1.5 mL of LB) and antibiotics at the 1 ×, 2 ×, 4 × and 8 × MIC. Tubes were inoculated (5 × 10^6 CFU/mL) with MRSA USA 300 and K. pneumoniae ATCC 700603 and incubated at 37 °C under shaking. Serial dilutions of the cultures were plated at each desired time point (0, 1, 3, 6, and 24 h), using a multichannel pipette as follows: in line 1 of a 96-well plate, 100 µL of bacterial suspension was added, while 90 µL of 0.9% sterile saline per well was added to the other lines. At selected time points, 100 µL of bacterial suspension was transferred from the time-kill assay plate to the first line. The wells were further diluted 1 in 10 (0.9% saline) for the appropriate number of dilutions and 10 μL of each dilution was spotted in duplicate onto MH agar plates, then incubated overnight at 37°C. The colonies in each spot were counted and used to calculate the number of viable CFU/mL remaining in the original culture by considering the dilution factors."}}, "note": "Where “and” joins values, the source holds several entries; their conditions need not be identical. Equal values may be shown once. Non-standard residues stand in square brackets, D forms with d. Residues, ends and D or L forms follow the SMILES beside them.", "data": [{"compound": "CC[C@@H](C)[C@@H](NC(=O)[C@@H](Cc1ccccc1)NC(=O)[C@@H](Cc1ccccc1)NC(=O)[C@@H](Cc1ccccc1)NC(=O)[C@H](N)Cc1ccccc1)C(=O)N[C@H](CCCNC(=N)N)C(=O)N[C@H](CCCNC(=N)N)C(=O)N[C@H](CC(C)C)C(=O)N[C@H](Cc1ccccc1)C(=O)N[C@H](CCCNC(=N)N)C(N)=O", "note": "[RI-HT2] (H-[dF][dF][dF][dF][dI][dR][dR][dL][dF][dR]-NH2; N-terminus assumed)", "values": [{"measurement": "Concentration (MIC in drug resistance assay)", "setting": "MRSA USA 300; MRSA USA 300, day 2", "value": 2, "unit": "mg/L"}, {"measurement": "Concentration (MIC in drug resistance assay)", "setting": "MRSA USA 300; MRSA USA 300, day 3", "value": 2, "unit": "mg/L"}, {"measurement": "Concentration (MIC in drug resistance assay)", "setting": "MRSA USA 300; MRSA USA 300, day 4", "value": 4, "unit": "mg/L"}, {"measurement": "Concentration (MIC in drug resistance assay)", "setting": "MRSA USA 300; MRSA USA 300, day 5", "value": 2, "unit": "mg/L"}, {"measurement": "Concentration (MIC in drug resistance assay)", "setting": "MRSA USA 300; MRSA USA 300, day 6", "value": 2, "unit": "mg/L"}, {"measurement": "Concentration (MIC in drug resistance assay)", "setting": "MRSA USA 300; MRSA USA 300, day 7", "value": 4, "unit": "mg/L"}, {"measurement": "Concentration (MIC in drug resistance assay)", "setting": "MRSA USA 300; MRSA USA 300, day 8", "value": 4, "unit": "mg/L"}, {"measurement": "Concentration (MIC in drug resistance assay)", "setting": "MRSA USA 300; MRSA USA 300, day 9", "value": 8, "unit": "mg/L"}, {"measurement": "Concentration (MIC in drug resistance assay)", "setting": "MRSA USA 300; MRSA USA 300, day 10", "value": 4, "unit": "mg/L"}, {"measurement": "Concentration (MIC in drug resistance assay)", "setting": "MRSA USA 300; MRSA USA 300, day 11", "value": 4, "unit": "mg/L"}, {"measurement": "Concentration (MIC in drug resistance assay)", "setting": "MRSA USA 300; MRSA USA 300, day 12", "value": 4, "unit": "mg/L"}, {"measurement": "Concentration (MIC in drug resistance assay)", "setting": "MRSA USA 300; MRSA USA 300, day 13", "value": 4, "unit": "mg/L"}, {"measurement": "Concentration (MIC in drug resistance assay)", "setting": "MRSA USA 300; MRSA USA 300, day 14", "value": 4, "unit": "mg/L"}, {"measurement": "Concentration (MIC in drug resistance assay)", "setting": "MRSA USA 300; MRSA USA 300, day 15", "value": 8, "unit": "mg/L"}, {"measurement": "Concentration (MIC in drug resistance assay)", "setting": "MRSA USA 300; MRSA USA 300, day 16", "value": 4, "unit": "mg/L"}, {"measurement": "Concentration (MIC in drug resistance assay)", "setting": "MRSA USA 300; MRSA USA 300, day 17", "value": 4, "unit": "mg/L"}, {"measurement": "Concentration (MIC in drug resistance assay)", "setting": "MRSA USA 300; MRSA USA 300, day 18", "value": 8, "unit": "mg/L"}, {"measurement": "Concentration (MIC in drug resistance assay)", "setting": "MRSA USA 300; MRSA USA 300, day 19", "value": 8, "unit": "mg/L"}, {"measurement": "Concentration (MIC in drug resistance assay)", "setting": "MRSA USA 300; MRSA USA 300, day 20", "value": 8, "unit": "mg/L"}, {"measurement": "Concentration (MIC in drug resistance assay)", "setting": "MRSA USA 300; MRSA USA 300, day 21", "value": 4, "unit": "mg/L"}, {"measurement": "Concentration (MIC in drug resistance assay)", "setting": "MRSA USA 300; MRSA USA 300, day 22", "value": 8, "unit": "mg/L"}, {"measurement": "Concentration (MIC in drug resistance assay)", "setting": "MRSA USA 300; MRSA USA 300, day 23", "value": 8, "unit": "mg/L"}, {"measurement": "Concentration (MIC in drug resistance assay)", "setting": "MRSA USA 300; MRSA USA 300, day 24", "value": 4, "unit": "mg/L"}, {"measurement": "Concentration (MIC in drug resistance assay)", "setting": "MRSA USA 300; MRSA USA 300, day 25", "value": 8, "unit": "mg/L"}, {"measurement": "Concentration (MIC in drug resistance assay)", "setting": "MRSA USA 300; MRSA USA 300, day 26", "value": 4, "unit": "mg/L"}, {"measurement": "Concentration (MIC in drug resistance assay)", "setting": "MRSA USA 300; MRSA USA 300, day 27", "value": 8, "unit": "mg/L"}, {"measurement": "Concentration (MIC in drug resistance assay)", "setting": "MRSA USA 300; MRSA USA 300, day 28", "value": 8, "unit": "mg/L"}, {"measurement": "Concentration (MIC in drug resistance assay)", "setting": "MRSA USA 300; MRSA USA 300, day 29", "value": 8, "unit": "mg/L"}, {"measurement": "Concentration (MIC in drug resistance assay)", "setting": "MRSA USA 300; MRSA USA 300, day 30", "value": 8, "unit": "mg/L"}, {"measurement": "Concentration (MIC in drug resistance assay)", "setting": "MRSA USA 300; MRSA USA 300, day 31", "value": 8, "unit": "mg/L"}, {"measurement": "Concentration (MIC in drug resistance assay)", "setting": "MRSA USA 300; MRSA USA 300, day 32", "value": 4, "unit": "mg/L"}, {"measurement": "Concentration (MIC in drug resistance assay)", "setting": "MRSA USA 300; MRSA USA 300, day 33", "value": 8, "unit": "mg/L"}, {"measurement": "Concentration (MIC in drug resistance assay)", "setting": "MRSA USA 300; MRSA USA 300, day 34", "value": 8, "unit": "mg/L"}, {"measurement": "Concentration (MIC in drug resistance assay)", "setting": "MRSA USA 300; MRSA USA 300, day 35", "value": 8, "unit": "mg/L"}, {"measurement": "Concentration (MIC in drug resistance assay)", "setting": "MRSA USA 300; MRSA USA 300, day 36", "value": 8, "unit": "mg/L"}, {"measurement": "Concentration (MIC in drug resistance assay)", "setting": "MRSA USA 300; MRSA USA 300, day 37", "value": 8, "unit": "mg/L"}, {"measurement": "Concentration (MIC in drug resistance assay)", "setting": "MRSA USA 300; MRSA USA 300, day 38", "value": 8, "unit": "mg/L"}, {"measurement": "Concentration (MIC in drug resistance assay)", "setting": "MRSA USA 300; MRSA USA 300, day 39", "value": 8, "unit": "mg/L"}, {"measurement": "Concentration (MIC in drug resistance assay)", "setting": "MRSA USA 300; MRSA USA 300, day 40", "value": 4, "unit": "mg/L"}, {"measurement": "increase in MIC after 40 passages", "setting": "MRSA USA 300; serial passage at sub-MIC", "value": "four-fold"}, {"measurement": "toxicity / cytotoxicity against HEK293T cells (in words)", "setting": "HEK293T cells", "value": "did not present"}, {"measurement": "percent cell viability", "setting": "HEK293T cells; 6.25 µM", "value": 88.3759}, {"measurement": "percent cell viability", "setting": "HEK293T cells; 12.5 µM", "value": "86.6385 and 87.1349"}, {"measurement": "viable count, time-kill", "setting": "[1]; 2 × MIC, 0 h", "value": "12000000 CFU/mL and 16000000 CFU/mL and 14000000 CFU/mL"}, {"measurement": "viable count, time-kill", "setting": "[1]; 2 × MIC, 1 h", "value": "10000 CFU/mL and 17000 CFU/mL and 15000 CFU/mL"}, {"measurement": "viable count, time-kill", "setting": "[1]; 2 × MIC, 3 h", "value": 100, "unit": "CFU/mL"}, {"measurement": "viable count, time-kill", "setting": "[1]; 2 × MIC, 6 h", "value": "220000 CFU/mL and 310000 CFU/mL and 270000 CFU/mL"}, {"measurement": "viable count, time-kill", "setting": "[1]; 2 × MIC, 24 h", "value": "1000000000000 CFU/mL and 1300000000000 CFU/mL"}, {"measurement": "viable count, time-kill", "setting": "[1]; 4 × MIC, 0 h", "value": "12000000 CFU/mL and 16000000 CFU/mL and 14000000 CFU/mL"}, {"measurement": "viable count, time-kill", "setting": "[1]; 4 × MIC, 1 h", "value": "2500 CFU/mL and 3500 CFU/mL and 3000 CFU/mL"}, {"measurement": "viable count, time-kill", "setting": "[1]; 4 × MIC, 3 h", "value": 0, "unit": "CFU/mL"}, {"measurement": "viable count, time-kill", "setting": "[1]; 4 × MIC, 6 h", "value": "24000 CFU/mL and 32000 CFU/mL and 30000 CFU/mL"}, {"measurement": "viable count, time-kill", "setting": "[1]; 4 × MIC, 24 h", "value": "3800000 CFU/mL and 3400000 CFU/mL"}, {"measurement": "time to complete killing", "setting": "[1]; 8 × MIC", "value": 3, "unit": "h"}, {"measurement": "viable count, time-kill", "setting": "[1]; 8 × MIC, 0 h", "value": "12000000 CFU/mL and 16000000 CFU/mL and 14000000 CFU/mL"}, {"measurement": "viable count, time-kill", "setting": "[1]; 8 × MIC, 1 h", "value": "300 CFU/mL and 500 CFU/mL"}, {"measurement": "viable count, time-kill", "setting": "[1]; 8 × MIC, 3 h", "value": 0, "unit": "CFU/mL"}, {"measurement": "viable count, time-kill", "setting": "[1]; 8 × MIC, 6 h", "value": 0, "unit": "CFU/mL"}, {"measurement": "viable count, time-kill", "setting": "[1]; 8 × MIC, 24 h", "value": 0, "unit": "CFU/mL"}, {"measurement": "viable count, time-kill", "setting": "[1]; MIC, 0 h", "value": "12000000 CFU/mL and 16000000 CFU/mL and 14000000 CFU/mL"}, {"measurement": "viable count, time-kill", "setting": "[1]; MIC, 1 h", "value": "270000 CFU/mL and 230000 CFU/mL and 250000 CFU/mL"}, {"measurement": "viable count, time-kill", "setting": "[1]; MIC, 3 h", "value": "23000 CFU/mL and 16000 CFU/mL and 17000 CFU/mL"}, {"measurement": "viable count, time-kill", "setting": "[1]; MIC, 6 h", "value": "3400000 CFU/mL and 2800000 CFU/mL and 3800000 CFU/mL"}, {"measurement": "viable count, time-kill", "setting": "[1]; MIC, 24 h", "value": "1000000000000 CFU/mL and 1200000000000 CFU/mL and 1700000000000 CFU/mL"}]}]}
